From ChEMBL document CHEMBL2434921, “New synthetic aliphatic sulfonamido-quaternary ammonium salts as anticancer chemotherapeutic agents” (2013) come the findings set out here.

One may read the GI50 as the concentration at which growth is held to half of that of the control.

The subject of test [1] is NCI-H23. Kind of test: Growth inhibition of human NCI-H23 cells after 48 hrs by SRB assay. The test is classed as functional. To be noted: NCI-H23, 48 h. Background: Sulforhodamine B stains cellular protein and so reports cell mass.
Test [2] deals with HCT-15. Kind of test: Growth inhibition of human HCT15 cells after 48 hrs by SRB assay. The test is classed as functional.
Test [3] relates to NUGC-3. The test can be described thus: Growth inhibition of human NUGC3 cells after 48 hrs by SRB assay. The class given is functional. To be noted: NUGC-3, 48 h.
Test [4] deals with ACHN. The test can be described thus: Growth inhibition of human ACHN cells after 48 hrs by SRB assay. The class given is functional.
The subject of test [5] is MDA-MB-231. Kind of test: Growth inhibition of human MDA-MB-231 cells after 48 hrs by SRB assay. To be noted: MDA-MB-231, 48 h. The class given is functional.
In test [6] the test system is PC-3. Kind of test: Growth inhibition of human PC3 cells after 48 hrs by SRB assay. The test is classed as functional. To be noted: PC-3, 48 h.
Test [7] concerns PC-3. Kind of test: Growth of human PC3 cells at 10 uM after 48 hrs by SRB assay. To be noted: PC-3, 48 h.
Test [8] deals with NUGC-3. The test can be described thus: Growth of human NUGC3 cells at 1 uM after 48 hrs by SRB assay. To be noted: NUGC-3, 48 h.
Test [9] deals with ACHN. The test can be described thus: Growth of human ACHN cells at 10 uM after 48 hrs by SRB assay.
For test [10], the system named is HCT-15. The test can be described thus: Growth of human HCT15 cells at 3 uM after 48 hrs by SRB assay. To be noted: HCT-15, 48 h.
Test [11] concerns ACHN. Kind of test: Growth of human ACHN cells at 0.1 uM after 48 hrs by SRB assay.
Test [12] concerns ACHN. The test can be described thus: Growth of human ACHN cells at 0.3 uM after 48 hrs by SRB assay.
Test [13] relates to NUGC-3. The test can be described thus: Growth of human NUGC3 cells at 0.1 uM after 48 hrs by SRB assay. To be noted: NUGC-3, 48 h.
Test [14] relates to NUGC-3. Kind of test: Growth of human NUGC3 cells at 0.3 uM after 48 hrs by SRB assay. To be noted: NUGC-3, 48 h.
Test [15] deals with HCT-15. The test can be described thus: Growth of human HCT15 cells at 0.3 uM after 48 hrs by SRB assay. To be noted: HCT-15, 48 h.
For test [16], the system named is NCI-H23. Kind of test: Growth of human NCI-H23 cells at 10 uM after 48 hrs by SRB assay. To be noted: NCI-H23, 48 h.
Test [17] has as its system NCI-H23. The test can be described thus: Growth of human NCI-H23 cells at 0.3 uM after 48 hrs by SRB assay. To be noted: NCI-H23, 48 h.
The test system of test [18] is MDA-MB-231. Kind of test: Growth of human MDA-MB-231 cells at 1 uM after 48 hrs by SRB assay. To be noted: MDA-MB-231, 48 h.
The subject of test [19] is MDA-MB-231. The test can be described thus: Growth of human MDA-MB-231 cells at 10 uM after 48 hrs by SRB assay. To be noted: MDA-MB-231, 48 h.
In test [20] the test system is MDA-MB-231. The test can be described thus: Growth of human MDA-MB-231 cells at 0.1 uM after 48 hrs by SRB assay. To be noted: MDA-MB-231, 48 h.
In test [21] the test system is MDA-MB-231. The test can be described thus: Growth of human MDA-MB-231 cells at 3 uM after 48 hrs by SRB assay; values are per cent of control. To be noted: MDA-MB-231, 48 h.
Test [22] relates to PC-3. Kind of test: Growth inhibition of human PC3 cells at 1 uM after 48 hrs by SRB assay; values are per cent of control. To be noted: PC-3, 48 h.
Test [23] deals with PC-3. Kind of test: Growth inhibition of human PC3 cells at 3 uM after 48 hrs by SRB assay; values are per cent of control. To be noted: PC-3, 48 h.
Test [24] relates to ACHN. The test can be described thus: Growth inhibition of human ACHN cells at 3 uM after 48 hrs by SRB assay; values are per cent of control.
The subject of test [25] is ACHN. The test can be described thus: Growth inhibition of human ACHN cells at 1 uM after 48 hrs by SRB assay; values are per cent of control.
Test [26] relates to NUGC-3. Kind of test: Growth inhibition of human NUGC3 cells at 3 uM after 48 hrs by SRB assay; values are per cent of control. To be noted: NUGC-3, 48 h.
Test [27] deals with PC-3. Kind of test: Growth inhibition of human PC3 cells at 0.1 uM after 48 hrs by SRB assay; values are per cent of control. To be noted: PC-3, 48 h.
In test [28] the test system is PC-3. Kind of test: Growth inhibition of human PC3 cells at 0.3 uM after 48 hrs by SRB assay; values are per cent of control. To be noted: PC-3, 48 h.
Test [29] has as its system HCT-15. Kind of test: Growth inhibition of human HCT15 cells at 1 uM after 48 hrs by SRB assay; values are per cent of control. To be noted: HCT-15, 48 h.
In test [30] the test system is NUGC-3. The test can be described thus: Growth inhibition of human NUGC3 cells at 10 uM after 48 hrs by SRB assay; values are per cent of control. To be noted: NUGC-3, 48 h.
Test [31] relates to HCT-15. The test can be described thus: Growth inhibition of human HCT15 cells at 10 uM after 48 hrs by SRB assay; values are per cent of control. To be noted: HCT-15, 48 h.
In test [32] the test system is NCI-H23. Kind of test: Growth inhibition of human NCI-H23 cells at 1 uM after 48 hrs by SRB assay; values are per cent of control. To be noted: NCI-H23, 48 h.
Test [33] concerns NCI-H23. The test can be described thus: Growth inhibition of human NCI-H23 cells at 3 uM after 48 hrs by SRB assay; values are per cent of control. To be noted: NCI-H23, 48 h.
Test [34] relates to HCT-15. Kind of test: Growth inhibition of human HCT15 cells at 0.1 uM after 48 hrs by SRB assay; values are per cent of control. To be noted: HCT-15, 48 h.
Test [35] concerns NCI-H23. The test can be described thus: Growth inhibition of human NCI-H23 cells at 0.1 uM after 48 hrs by SRB assay; values are per cent of control. To be noted: NCI-H23, 48 h.
Test [36] deals with MDA-MB-231. The test can be described thus: Growth inhibition of human MDA-MB-231 cells at 0.3 uM after 48 hrs by SRB assay; values are per cent of control. To be noted: MDA-MB-231, 48 h.
In test [37] the target is Rho-related GTP-binding protein RhoB (Homo sapiens) (UniProt P62745). The test can be described thus: Transactivation of RhoB (unknown origin) transfected in human HeLa cells at 5 uM measured over 10 secs by dual luciferase reporter gene assay. The class given is cell-based.
Rho-related GTP-binding protein RhoB (Homo sapiens), sequence (P62745 whole entry): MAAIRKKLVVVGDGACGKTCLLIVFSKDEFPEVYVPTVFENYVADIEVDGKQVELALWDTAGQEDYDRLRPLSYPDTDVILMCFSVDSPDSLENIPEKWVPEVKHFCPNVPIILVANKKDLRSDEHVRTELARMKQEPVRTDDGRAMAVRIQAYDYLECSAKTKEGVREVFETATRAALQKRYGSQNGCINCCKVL

The structures appear in SMILES notation. The source made the active and inactive calls. No cut-off for these calls is given here.

`CCCCCCCCCCCCCCCCS(=O)(=O)NCC(C)(C)C[N+](C)(C)C`: the GI50 came out at 740 nM with NCI-H23 [1]; 560 nM with HCT-15 [2] (HCT-15, 48 h); 430 nM in the test with NUGC-3 [3]; 2210 nM in the test with ACHN [4]; 1520 nM in the test with MDA-MB-231 [5]; 560 nM with PC-3 [6]. Besides, the growth, % of control at 10 µM in the test with PC-3 [7] was -14.6%; in the test with ACHN [9], 99.6%; in the test on NCI-H23 [16], 0.7%; with MDA-MB-231 [19] it was 16.5%; in the test with NUGC-3 [30] it was 3%; with HCT-15 [31] it was 11.7%. For the same compound, the growth, % of control at 1 µM with NUGC-3 [8] was 33.6%; with MDA-MB-231 [18] it was 73.6%; in the test with PC-3 [22], 51.8%; with ACHN [25], 108%; in the test on HCT-15 [29], 46.1%; with NCI-H23 [32], 54.1%. The growth, % of control at 3 µM in the test with HCT-15 [10] came out at 17.6%; in the test on MDA-MB-231 [21] it was 49.5%; in the test on PC-3 [23], 0.2%; in the test on ACHN [24], 101%; in the test on NUGC-3 [26], 14.7%; with NCI-H23 [33], 26.3%. In addition, the growth, % of control at 0.1 µM turned out to be 122% in the test on ACHN [11]; 106% with NUGC-3 [13]; 95.6% with MDA-MB-231 [20]; 107% with PC-3 [27]; 136% in the test on HCT-15 [34]; 104% with NCI-H23 [35]. For the same compound, the growth, % of control at 0.3 µM with ACHN [12] was 114%; in the test on NUGC-3 [14] it was 87.1%; in the test on HCT-15 [15], 132%; in the test with NCI-H23 [17], 102%; in the test on PC-3 [28] it was 102%; with MDA-MB-231 [36], 95%.
For `C=CC[N+](C)(C)CCN(C)C(=O)CCCCCCCCCCCCC`, the GI50 in the test on NCI-H23 [1] turned out to be 240 nM; in the test on NUGC-3 [3], 140 nM; with ACHN [4] it was 100 nM; with MDA-MB-231 [5], 300 nM; with PC-3 [6], 210 nM. In the test on HCT-15 [2], the GI50 entry is “inactive”.
As to `CCCCCCCCCCCCCCCC(=O)N1CC[N+](C)(C)CC1`, the GI50 in the test with HCT-15 [2] (HCT-15, 48 h) is 580 nM; in the test with NUGC-3 [3], 290 nM; in the test with PC-3 [6], 480 nM. Moreover, the result in [37] was Active.
